Measurements from ChEMBL document CHEMBL3885881, “DrugMatrix”.

Organism: Rattus norvegicus
Experiment: DrugMatrix - Regimen: Daily Repeat
Format: toxicity, organism-based, Sprague-Dawley
Design: regimen Daily Repeat, gender Male, age 6-8 weeks
Conditions: in vivo, po, route oral GAVAGE, vehicle 100 % WATER; for ABSOLUTE BASOPHIL / ABSOLUTE EOSINOPHIL / ABSOLUTE LYMPHOCYTE / ABSOLUTE MONOCYTE / ABSOLUTE SEGMENTED NEUTROPHIL / BASOPHIL / EOSINOPHIL / ERYTHROCYTE COUNT / HEMATOCRIT / HEMOGLOBIN / LEUKOCYTE COUNT / LYMPHOCYTE / MEAN CORPUSCULAR HEMOGLOBIN / MEAN CORPUSCULAR HEMOGLOBIN CONCENTRATION / MEAN CORPUSCULAR VOLUME / MONOCYTE / NEUTROPHIL / NUCLEATED RED BLOOD CELLS / PLATELET COUNT: tissue Blood; for ALANINE AMINOTRANSFERASE / ALBUMIN / ALKALINE PHOSPHATASE / ASPARTATE AMINOTRANSFERASE / BLOOD UREA NITROGEN / CARBON DIOXIDE / CHLORIDE / CHOLESTEROL / CREATINE PHOSPHOKINASE / CREATININE / GLUCOSE / LACTATE DEHYDROGENASE / LIPASE / PHOSPHORUS / POTASSIUM / SODIUM / TOTAL BILIRUBIN / TOTAL PROTEIN / URIC ACID: tissue Plasma
[1] = 50 mg/kg, 120 h, dose level Low, time 5 day
[2] = 1500 mg/kg, 72 h, dose level High, time 3 day
[3] = 1500 mg/kg, 120 h, dose level High, time 5 day

For `Cc1ncc([N+](=O)[O-])n1CCO` [METRONIDAZOLE], the “ABSOLUTE BASOPHIL” value [1] was 0 CELLS/uL, the “ABSOLUTE EOSINOPHIL” value [1] was 0 CELLS/uL and the “ABSOLUTE LYMPHOCYTE” value [1] was 11707 CELLS/uL. The “ABSOLUTE MONOCYTE” value [1] was 0 CELLS/uL, the “ABSOLUTE SEGMENTED NEUTROPHIL” value [1] was 459.67 CELLS/uL and the BASOPHIL [1] was 0%. For the same compound, the EOSINOPHIL [1] was 0%, the “ERYTHROCYTE COUNT” value [1] was 6 x10E6/uL and the HEMATOCRIT [1] was 36.43%. The HEMOGLOBIN [1] was 13.8 G/DL, the “LEUKOCYTE COUNT” value [1] was 12.17 x10E3/uL and the LYMPHOCYTE [1] was 96.33%. For the same compound, the “MEAN CORPUSCULAR HEMOGLOBIN” value [1] was 23.03 pg, the “MEAN CORPUSCULAR HEMOGLOBIN CONCENTRATION” value [1] was 37.87 G/DL and the “MEAN CORPUSCULAR VOLUME” value [1] was 60.9 fL. For the same compound, the MONOCYTE [1] was 0%, the NEUTROPHIL [1] was 3.67% and the “NUCLEATED RED BLOOD CELLS” value [1] was 0.33 /100WBC. For the same compound, the “PLATELET COUNT” value [1] was 986 x10E3/uL, the “ALANINE AMINOTRANSFERASE” value [1] was 61 u/L and the ALBUMIN [1] was 4.07 G/DL. For the same compound, the “ALKALINE PHOSPHATASE” value [1] was 338 u/L, the “ASPARTATE AMINOTRANSFERASE” value [1] was 108.33 u/L and the “BLOOD UREA NITROGEN” value [1] was 13.67 mg/dL. The “CARBON DIOXIDE” value [1] was 30.67 mmol/L, the CHLORIDE [1] was 100.33 MEQ/L and the CHOLESTEROL [1] was 67 mg/dL. For the same compound, the “CREATINE PHOSPHOKINASE” value [1] was 1022 u/L, the CREATININE [1] was 0.16 mg/dL and the GLUCOSE [1] was 151.33 mg/dL. For the same compound, the “LACTATE DEHYDROGENASE” value [1] was 207.67 u/L, the LIPASE [1] was 10.67 u/L and the PHOSPHORUS [1] was 11.73 mg/dL. The POTASSIUM [1] was 5.65 MEQ/L, the SODIUM [1] was 145.1 MEQ/L and the “TOTAL BILIRUBIN” value [1] was 0.13 mg/dL. The “TOTAL PROTEIN” value [1] was 6.17 G/DL, the “URIC ACID” value [1] was 1 mg/dL and the “ABSOLUTE BASOPHIL” value [2] was 0 CELLS/uL. For the same compound, the “ABSOLUTE EOSINOPHIL” value [2] was 49.33 CELLS/uL, the “ABSOLUTE LYMPHOCYTE” value [2] was 11170.67 CELLS/uL and the “ABSOLUTE MONOCYTE” value [2] was 122.67 CELLS/uL. The “ABSOLUTE SEGMENTED NEUTROPHIL” value [2] was 924 CELLS/uL, the BASOPHIL [2] was 0% and the EOSINOPHIL [2] was 0.33%. For the same compound, the “ERYTHROCYTE COUNT” value [2] was 5.75 x10E6/uL, the HEMATOCRIT [2] was 36.7% and the HEMOGLOBIN [2] was 14.07 G/DL. The “LEUKOCYTE COUNT” value [2] was 12.27 x10E3/uL, the LYMPHOCYTE [2] was 91.33% and the “MEAN CORPUSCULAR HEMOGLOBIN” value [2] was 24.47 pg. For the same compound, the “MEAN CORPUSCULAR HEMOGLOBIN CONCENTRATION” value [2] was 38.33 G/DL, the “MEAN CORPUSCULAR VOLUME” value [2] was 63.8 fL and the MONOCYTE [2] was 1%. For the same compound, the NEUTROPHIL [2] was 7.33%, the “NUCLEATED RED BLOOD CELLS” value [2] was 0 /100WBC and the “PLATELET COUNT” value [2] was 1295.67 x10E3/uL. The “ALANINE AMINOTRANSFERASE” value [2] was 71 u/L, the ALBUMIN [2] was 4.03 G/DL and the “ALKALINE PHOSPHATASE” value [2] was 332 u/L. The “ASPARTATE AMINOTRANSFERASE” value [2] was 84.33 u/L, the “BLOOD UREA NITROGEN” value [2] was 15 mg/dL and the “CARBON DIOXIDE” value [2] was 32.33 mmol/L. For the same compound, the CHLORIDE [2] was 102 MEQ/L, the CHOLESTEROL [2] was 87 mg/dL and the “CREATINE PHOSPHOKINASE” value [2] was 331.67 u/L. For the same compound, the CREATININE [2] was 0.23 mg/dL, the GLUCOSE [2] was 134.67 mg/dL and the “LACTATE DEHYDROGENASE” value [2] was 176.33 u/L. For the same compound, the LIPASE [2] was 12 u/L, the PHOSPHORUS [2] was 10.83 mg/dL and the POTASSIUM [2] was 5.73 MEQ/L. The SODIUM [2] was 146.4 MEQ/L, the “TOTAL BILIRUBIN” value [2] was 0.1 mg/dL and the “TOTAL PROTEIN” value [2] was 5.9 G/DL. The “URIC ACID” value [2] was 0.4 mg/dL, the “ABSOLUTE BASOPHIL” value [3] was 0 CELLS/uL and the “ABSOLUTE EOSINOPHIL” value [3] was 0 CELLS/uL. For the same compound, the “ABSOLUTE LYMPHOCYTE” value [3] was 10466.67 CELLS/uL, the “ABSOLUTE MONOCYTE” value [3] was 94 CELLS/uL and the “ABSOLUTE SEGMENTED NEUTROPHIL” value [3] was 906 CELLS/uL. For the same compound, the BASOPHIL [3] was 0%, the EOSINOPHIL [3] was 0% and the “ERYTHROCYTE COUNT” value [3] was 6.09 x10E6/uL. For the same compound, the HEMATOCRIT [3] was 39.27%, the HEMOGLOBIN [3] was 15.2 G/DL and the “LEUKOCYTE COUNT” value [3] was 11.47 x10E3/uL. The LYMPHOCYTE [3] was 91.67%, the “MEAN CORPUSCULAR HEMOGLOBIN” value [3] was 25.03 pg and the “MEAN CORPUSCULAR HEMOGLOBIN CONCENTRATION” value [3] was 38.73 G/DL. The “MEAN CORPUSCULAR VOLUME” value [3] was 64.6 fL, the MONOCYTE [3] was 1% and the NEUTROPHIL [3] was 7.33%. The “NUCLEATED RED BLOOD CELLS” value [3] was 0 /100WBC, the “PLATELET COUNT” value [3] was 962 x10E3/uL and the “ALANINE AMINOTRANSFERASE” value [3] was 79.33 u/L. For the same compound, the ALBUMIN [3] was 4.3 G/DL, the “ALKALINE PHOSPHATASE” value [3] was 365 u/L and the “ASPARTATE AMINOTRANSFERASE” value [3] was 91.67 u/L. The “BLOOD UREA NITROGEN” value [3] was 17.67 mg/dL, the “CARBON DIOXIDE” value [3] was 32.33 mmol/L and the CHLORIDE [3] was 101.67 MEQ/L. For the same compound, the CHOLESTEROL [3] was 66.33 mg/dL, the “CREATINE PHOSPHOKINASE” value [3] was 679.67 u/L and the CREATININE [3] was 0.18 mg/dL. For the same compound, the GLUCOSE [3] was 138.33 mg/dL, the “LACTATE DEHYDROGENASE” value [3] was 145.33 u/L and the LIPASE [3] was 11 u/L. For the same compound, the PHOSPHORUS [3] was 11.17 mg/dL, the POTASSIUM [3] was 6.28 MEQ/L and the SODIUM [3] was 147.87 MEQ/L. The “TOTAL BILIRUBIN” value [3] was 0.13 mg/dL, the “TOTAL PROTEIN” value [3] was 6.17 G/DL and the “URIC ACID” value [3] was 0.83 mg/dL.
